Results taken from paper PMC9154192 (PLoS Biology, 2022).
In brackets after ≈: the same amount, converted by molar mass. Where two headings read alike, the source gives them in different places.

What was measured:
M. bovis = test: microbe, parasite or virus in culture; type: cell-based; conditions: Mycobacterium tuberculosis variant bovis
M. bolletii = test: microbe, parasite or virus in culture; type: cell-based, Mycobacterium bolletii; conditions: Mycobacteroides abscessus
M. tuberculosis H37Rv = test: microbe, parasite or virus in culture; type: cell-based, Mycobacterium tuberculosis
[1] = test system: clinically isolated MDR, XDR, and TDR M. tuberculosis strains; test: microbe, parasite or virus in culture; type: cell-based; conditions: Mycobacterium tuberculosis
M. phocaicum = test: microbe, parasite or virus in culture; type: cell-based, Mycobacterium phocaicum; conditions: Mycolicibacterium phocaicum
M. avium = test: microbe, parasite or virus in culture; type: cell-based; conditions: Mycobacterium avium
M. gordonae = test: microbe, parasite or virus in culture; type: cell-based; conditions: Mycobacterium gordonae
M. heraklionease = test: microbe, parasite or virus in culture; type: cell-based; conditions: Mycobacterium
M. kansasii = test: microbe, parasite or virus in culture; type: cell-based; conditions: Mycobacterium kansasii
M. chitae = test: microbe, parasite or virus in culture; type: cell-based, Mycobacterium chitae; conditions: Mycolicibacterium chitae
M. goodie = test: microbe, parasite or virus in culture; type: cell-based; conditions: Mycobacterium
M. fortuitum = test: microbe, parasite or virus in culture; type: cell-based, Mycobacterium fortuitum; conditions: Mycolicibacterium fortuitum
M. massiliense = test: microbe, parasite or virus in culture; type: cell-based, Mycobacterium massiliense; conditions: Mycobacteroides abscessus
Trichophyton rubrum = test: Broth dilution MIC (CLSI); type: cell-based; conditions: read-out: MIC
Excerpt: (§1) Bacteria (Acinetobacter baumannii NCCP 14782, Citrobacter freundii NCCP 14766, Enterobacter aerogenes NCCP 14761, Escherichia coli NCCP 14762, Escherichia coli O157 NCCP 14541, Klebsiella pneumoniae NCCP 14764, Proteus mirabilis NCCP 14763, Proteus vulgaris NCCP 14765, Pseudomonas aeruginosa NCCP 14781, Salmonella Enteritidis NCCP 14771, Salmonella Paratyphi A NCCP 14759, Salmonella Typhimurium NCCP 16207, Serratia marcescens NCCP 14770, Shigella boydii NCCP 14745, Shigella dysenteriae NCCP 14746, Shigella flexneri NCCP 14744, Shigella sonnei NCCP 14773, Bacillus subtilis NCCP 11101, Corynebacterium diphtheriae NCCP 10353, Staphylococcus aureus MSSA NCCP 14780, Staphylococcus aureus MRSA NCCP 14769, Staphylococcus epidermidis NCCP 14768, Streptococcus pneumoniae NCCP 14774) and fungi (Aspergillus fumigatus NCCP 22454, Candida albicans NCCP 32557, Cryptococcus neoformans NCCP 32559, Microsporum canis NCCP 22454, Rhizopus oryzae NCCP 22458, Saccharomyces cerevisiae NCCP 32558, Trichophyton rubrum NCCP 22456) strains were obtained from the National Culture Collection for Pathogens (NCCP) (Chungbuk, Korea). The MIC of each agent was determined following the Clinical and Laboratory Standards Institute (CLSI).[40]

Shigella boydii = test: Broth dilution MIC (CLSI); type: cell-based; conditions: read-out: MIC
Excerpt: as §1

Streptococcus pneumoniae = test: Broth dilution MIC (CLSI); type: cell-based; conditions: read-out: MIC
Excerpt: as §1

Microsporum canis = test: Broth dilution MIC (CLSI); type: cell-based; conditions: read-out: MIC
Excerpt: as §1

Shigella dysenteriae = test: Broth dilution MIC (CLSI); type: cell-based; conditions: read-out: MIC
Excerpt: as §1

Bacillus subtilis = test: Broth dilution MIC (CLSI); type: cell-based; conditions: read-out: MIC
Excerpt: as §1

Salmonella Typhimurium = test: Broth dilution MIC (CLSI); type: cell-based; conditions: Salmonella enterica; Salmonella Typhimurium; read-out: MIC
Excerpt: as §1

Candida albicans = test: Broth dilution MIC (CLSI); type: cell-based; conditions: read-out: MIC
Excerpt: as §1

Enterobacter aerogenes = test: Broth dilution MIC (CLSI); type: cell-based; conditions: Klebsiella aerogenes; Enterobacter aerogenes; read-out: MIC
Excerpt: as §1

Serratia marcescens = test: Broth dilution MIC (CLSI); type: cell-based; conditions: read-out: MIC
Excerpt: as §1

Aspergillus fumigatus = test: Broth dilution MIC (CLSI); type: cell-based; conditions: read-out: MIC
Excerpt: as §1

Pseudomonas aeruginosa = test: Broth dilution MIC (CLSI); type: cell-based; conditions: read-out: MIC
Excerpt: as §1

[2] = test system: Corynebacterium diphtheriae; test: Broth dilution MIC (CLSI); type: cell-based; conditions: read-out: MIC
Excerpt: as §1

Salmonella Enteritidis = test: Broth dilution MIC (CLSI); type: cell-based; conditions: Salmonella enterica; Salmonella Enteritidis; read-out: MIC
Excerpt: as §1

Shigella flexneri = test: Broth dilution MIC (CLSI); type: cell-based; conditions: read-out: MIC
Excerpt: as §1

[3] = test system: Staphylococcus aureus, MSSA; test: Broth dilution MIC (CLSI); type: cell-based; conditions: read-out: MIC
Excerpt: as §1

Acinetobacter baumannii = test: Broth dilution MIC (CLSI); type: cell-based; conditions: read-out: MIC
Excerpt: as §1

Rhizopus oryzae = test: Broth dilution MIC (CLSI); type: cell-based; conditions: Rhizopus arrhizus; Rhizopus oryzae; read-out: MIC
Excerpt: as §1

Cryptococcus neoformans = test: Broth dilution MIC (CLSI); type: cell-based; conditions: read-out: MIC
Excerpt: as §1

Proteus vulgaris = test: Broth dilution MIC (CLSI); type: cell-based; conditions: read-out: MIC
Excerpt: as §1

Escherichia coli = test: Broth dilution MIC (CLSI); type: cell-based; conditions: read-out: MIC
Excerpt: as §1

Klebsiella pneumoniae = test: Broth dilution MIC (CLSI); type: cell-based; conditions: read-out: MIC
Excerpt: as §1

Proteus mirabilis = test: Broth dilution MIC (CLSI); type: cell-based; conditions: read-out: MIC
Excerpt: as §1

[4] = test system: Staphylococcus epidermidis; test: Broth dilution MIC (CLSI); type: cell-based; conditions: read-out: MIC
Excerpt: as §1

Saccharomyces cerevisiae = test: Broth dilution MIC (CLSI); type: cell-based; conditions: read-out: MIC
Excerpt: as §1

Shigella sonnei = test: Broth dilution MIC (CLSI); type: cell-based; conditions: read-out: MIC
Excerpt: as §1

Salmonella Paratyphi A = test: Broth dilution MIC (CLSI); type: cell-based; conditions: Salmonella enterica; Salmonella Paratyphi A; read-out: MIC
Excerpt: as §1

[5] = test system: Staphylococcus aureus, MRSA; test: Broth dilution MIC (CLSI); type: cell-based; conditions: read-out: MIC
Excerpt: as §1

Citrobacter freundii = test: Broth dilution MIC (CLSI); type: cell-based; conditions: read-out: MIC
Excerpt: as §1

Escherichia coli O157 = test: Broth dilution MIC (CLSI); type: cell-based; conditions: read-out: MIC
Excerpt: as §1

[6] = Mycobacterium tuberculosis, H37RV, read-out: MIC

Structure (SMILES): CCCCOc1ccc2cc(CN3C(=O)CC[C@H]3C(=O)OC)c3cc(OC)c(OC)cc3c2c1 [PP2S, Methyl (S)-1-((3-butoxy-6,7-dimethoxyphenanthren-9-yl)methyl)-5-oxopyrrolidine-2-carboxylate]
- MIC (M. bovis): 0.8 µg/mL (≈ 1.72 µM)
- MIC (M. bolletii): > 100 µg/mL
- MIC (M. tuberculosis H37Rv): 0.4 µg/mL (≈ 0.859 µM)
- in vitro antitubercular activities (S-form vs R-form) (M. tuberculosis H37Rv): had in vitro antitubercular activities
- MIC (M. tuberculosis H37Rv; [6]): 0.8 µg/mL (≈ 1.72 µM)
- MIC ([1]; TDR-1): 1.6 µg/mL (≈ 3.44 µM)
- MIC ([1]; TDR-2): 0.2 µg/mL (≈ 0.43 µM)
- MIC ([1]; TDR-3): 1.6 µg/mL (≈ 3.44 µM)
- MIC (M. phocaicum): > 100 µg/mL
- MIC (M. avium): > 100 µg/mL
- MIC (M. gordonae): > 100 µg/mL
- MIC (M. heraklionease): > 100 µg/mL
- MIC (M. kansasii): > 100 µg/mL
- MIC (M. chitae): > 100 µg/mL
- MIC (M. goodie): > 100 µg/mL
- MIC (M. fortuitum): > 100 µg/mL
- MIC (M. massiliense): > 100 µg/mL
- MIC (Trichophyton rubrum): > 100 µg/mL
- MIC (Shigella boydii): > 100 µg/mL
- MIC (Streptococcus pneumoniae): > 100 µg/mL
- MIC (Microsporum canis): > 100 µg/mL
- MIC (Shigella dysenteriae): > 100 µg/mL
- MIC (Bacillus subtilis): > 100 µg/mL
- MIC (Salmonella Typhimurium): > 100 µg/mL
- MIC (Candida albicans): > 100 µg/mL
- MIC (Enterobacter aerogenes): > 100 µg/mL
- MIC (Serratia marcescens): > 100 µg/mL
- MIC (Aspergillus fumigatus): > 100 µg/mL
- MIC (Pseudomonas aeruginosa): > 100 µg/mL
- MIC [2]: > 100 µg/mL
- MIC (Salmonella Enteritidis): > 100 µg/mL
- MIC (Shigella flexneri): > 100 µg/mL
- MIC [3]: > 100 µg/mL
- MIC (Acinetobacter baumannii): > 100 µg/mL
- MIC (Rhizopus oryzae): > 100 µg/mL
- MIC (Cryptococcus neoformans): > 100 µg/mL
- MIC (Proteus vulgaris): > 100 µg/mL
- MIC (Escherichia coli): > 100 µg/mL
- MIC (Klebsiella pneumoniae): > 100 µg/mL
- MIC (Proteus mirabilis): > 100 µg/mL
- MIC [4]: > 100 µg/mL
- MIC (Saccharomyces cerevisiae): > 100 µg/mL
- MIC (Shigella sonnei): > 100 µg/mL
- MIC (Salmonella Paratyphi A): > 100 µg/mL
- MIC [5]: > 100 µg/mL
- MIC (Citrobacter freundii): > 100 µg/mL
- MIC (Escherichia coli O157): > 100 µg/mL

Structure (SMILES): COC(=O)[C@@H]1CCC(=O)N1Cc1cc2ccc(OCc3ccccc3)cc2c2cc(OC)c(OC)cc12 [PP3S, Methyl (S)-1-{[3-(Benzyloxy)-6,7-dimethoxy-9-phenanthryl]methyl}-5-oxopyrrolidine-2-carboxylate]
- MIC (M. bovis): 3.12 µg/mL (≈ 6.25 µM)
- MIC (M. bolletii): > 100 µg/mL
- in vitro antitubercular activities (S-form vs R-form) (M. tuberculosis H37Rv): had in vitro antitubercular activities
- MIC (M. tuberculosis H37Rv; [6]): 1.6 µg/mL (≈ 3.2 µM)
- MIC ([1]; TDR-1): 0.8 µg/mL (≈ 1.6 µM)
- MIC ([1]; TDR-2): 1.6 µg/mL (≈ 3.2 µM)
- MIC ([1]; TDR-3): 0.8 µg/mL (≈ 1.6 µM)
- MIC (M. phocaicum): > 100 µg/mL
- MIC (M. avium): > 100 µg/mL
- MIC (M. gordonae): > 100 µg/mL
- MIC (M. heraklionease): > 100 µg/mL
- MIC (M. kansasii): > 100 µg/mL
- MIC (M. chitae): > 100 µg/mL
- MIC (M. goodie): > 100 µg/mL
- MIC (M. fortuitum): > 100 µg/mL
- MIC (M. massiliense): > 100 µg/mL
- MIC (Trichophyton rubrum): > 100 µg/mL
- MIC (Shigella boydii): > 100 µg/mL
- MIC (Streptococcus pneumoniae): > 100 µg/mL
- MIC (Microsporum canis): > 100 µg/mL
- MIC (Shigella dysenteriae): > 100 µg/mL
- MIC (Bacillus subtilis): > 100 µg/mL
- MIC (Salmonella Typhimurium): > 100 µg/mL
- MIC (Candida albicans): > 100 µg/mL
- MIC (Enterobacter aerogenes): > 100 µg/mL
- MIC (Serratia marcescens): > 100 µg/mL
- MIC (Aspergillus fumigatus): > 100 µg/mL
- MIC (Pseudomonas aeruginosa): > 100 µg/mL
- MIC [2]: > 100 µg/mL
- MIC (Salmonella Enteritidis): > 100 µg/mL
- MIC (Shigella flexneri): > 100 µg/mL
- MIC [3]: > 100 µg/mL
- MIC (Acinetobacter baumannii): > 100 µg/mL
- MIC (Rhizopus oryzae): > 100 µg/mL
- MIC (Cryptococcus neoformans): > 100 µg/mL
- MIC (Proteus vulgaris): > 100 µg/mL
- MIC (Escherichia coli): > 100 µg/mL
- MIC (Klebsiella pneumoniae): > 100 µg/mL
- MIC (Proteus mirabilis): > 100 µg/mL
- MIC [4]: > 100 µg/mL
- MIC (Saccharomyces cerevisiae): > 100 µg/mL
- MIC (Shigella sonnei): > 100 µg/mL
- MIC (Salmonella Paratyphi A): > 100 µg/mL
- MIC [5]: > 100 µg/mL
- MIC (Citrobacter freundii): > 100 µg/mL
- MIC (Escherichia coli O157): > 100 µg/mL
